Reference: patent publication US12673973B2, “Peptide having blood coagulation activity, and use thereof” (CAREGEN CO, LTD., priority 2021, dated 2026)
Peptide text beside a SMILES is read from it.

How the values were obtained:
red blood cells = assay: Hemolysis test; type: cell-based, rat; details: 1 hour 37° C.
Protocol: Furthermore, it was confirmed whether hemolysis, in which blood cells are destroyed, occurs by treatment with the peptide of the present invention. In a state where the coagulation reaction of the collected rat blood was suppressed in a heparinized vacuum collection tube, it was transferred to an EP tube and centrifuged at 1,500 g for 10 minutes. After removing the supernatant plasma, the precipitated red blood cells were treated with 200 μl of 2.5% and 5% of the peptide of the present invention, respectively. A sample treated with 1% SDS was used as a positive control for hemolysis. Each sample was stored for 1 hour in a 37° C. incubator, and then centrifuged again at 1,500 g for 10 minutes. 200 μl of the supernatant was transferred to a 96-well plate, and the optical density was measured at a wavelength of 540 nm.

rat blood [1] = assay: Blood coagulation test: optical density of supernatant; type: cell-based; details: heparinized rat blood, CaCl2 added, 37° C. 10 minutes
Protocol: In addition, in order to evaluate the coagulation efficacy of the peptide of the present invention, the peptide of the Preparation Example was treated with rat blood, and its optical density was measured. Specifically, in a state where the coagulation reaction of the collected rat blood was suppressed in a heparinized vacuum collection tube, 300 μl of blood was transferred to a 15 ml conical tube, and 300 μl of the peptide of the present invention solution was added thereto and mixed gently. Then, 30 μl of 0.2 M CaCl2 solution was added thereto and incubated at 37° C. for 10 minutes to accelerate the coagulation reaction. Then, 10 ml of distilled water was carefully added thereto, and 200 μl of the uniformly dispersed supernatant was added to a 96-well plate, and the optical density was measured at a wavelength of 540 nm using a spectrophotometer. Likewise, Greenplast and RADA16 peptide preparations were used as controls.

rat blood [2] = assay: Blood coagulation test: clotting time by tube inversion; type: cell-based; details: 300 μl heparinized rat blood + 150 μl sample, peptides at 2.5%
Protocol: First, the clotting time of blood according to the treatment of the peptide of the present invention was evaluated. In a state where the coagulation reaction of the collected rat blood was suppressed in a heparinized vacuum collection tube, 300 μl of blood was transferred to an EP tube, and 150 μl of a solution in which the peptide of the present invention was dissolved in purified water was treated thereto. The clotting time was measured by inverting the tube at 10-second intervals and visually evaluating the flowability of the blood. As a control group, the RADA16 peptide sample and Greenplast (Greenplast Q, GC Green Cross) were used to conduct the experiment in the same manner as the peptide of the present invention.

CC[C@H](C)[C@H](NC(=O)[C@H](CC(N)=O)NC(=O)CNC(=O)[C@H](C)NC(=O)[C@H](CC(C)C)NC(=O)[C@H](Cc1ccc(O)cc1)NC(=O)[C@H](C)NC(=O)[C@H](CCC(N)=O)NC(=O)[C@H](CO)NC(=O)[C@H](C)NC(=O)[C@@H](N)CO)C(=O)N[C@H](C(=O)O)[C@@H](C)O [Peptide of the present invention, SASQAYLAGNIT] (H-SASQAYLAGNIT-OH)
hemolysis (optical density of supernatant at 540 nm) (red blood cells; 2.5% peptide, 200 μl): did not induce hemolysis | hemolysis (optical density of supernatant at 540 nm) (red blood cells; 5% peptide, 200 μl): did not induce hemolysis

CCCCCCCCCCCCOS(=O)(=O)[O-].[Na+] [SDS]
hemolysis (optical density of supernatant at 540 nm) (red blood cells; 1% SDS positive control): hemolysis occurred

RADA16
optical density (540 nm) of supernatant relative to negative control treated with distilled water (rat blood [1]): 0.7 | Blood Clotting time (rat blood [2]): <30 s | Blood Clotting time (rat blood [2]; listed as RADA16 peptide): less than 30 sec
